The source of these data is ChEMBL document CHEMBL5042470, “Combined Cardioprotective and Adipocyte Browning Effects Promoted by the Eutomer of Dual sEH/PPARγ Modulator” (J Med Chem, 2021).

The subject of experiment [1] is SGBS. The experiment in a line: Induction of adipogenic differentiation in human SGBS cells assessed as increase in perilipin A mRNA expression A at 0.01 to 1 uM by RT-PCR analysis. In kind it is functional, cell-based. Particulars: dose 0.01-1 µM.
Experiment [2] has as its system Heart. The experiment in a line: Cardioprotective activity in Langendorff-perfused wild-type C57BL/6 mouse heart assessed as increase in heart rate at 300 nM. The experiment is classed as functional, tissue-based.
Experiment [3] deals with SGBS. The experiment in a line: Induction of browning in human SGBS cells assessed as increase in UQCRC2 mRNA expression at 0.01 to 1 uM by qRT-PCR analysis. The settings on record: dose 0.01-1 µM. The experiment is classed as functional, cell-based. Background: In qPCR the cycle at which signal appears reflects the starting amount.
For experiment [4], the species on record is Mus musculus. Briefly: Cardioprotective activity in Langendorff-perfused wild-type C57BL/6 mouse model of coronary occlusion induced ischemia/reperfusion assessed as decrease in left ventricular end diastolic pressure at 3 nmol/L followed by ischemia for 20 mins and measured 2 hrs after reperfusion […]. The experiment is classed as functional, organism-based. The settings on record: time 140.0 min.

Experiment [5] is filed under the species Mus musculus. The experiment in a line: Cardioprotective activity in Langendorff-perfused wild-type C57BL/6 mouse model of coronary occlusion induced ischemia/reperfusion assessed as increase in left ventricular developed pressure at 3 nmol/L followed by ischemia for 20 mins and measured 2 hrs after reperfusion […]. The experiment is classed as functional, organism-based. The settings on record: time 140.0 min.

Experiment [6] has as its system SGBS. The experiment in a line: Induction of cellular respiration in human SGBS cells assessed as increase in oxygen consumption rate at 0.01 to 1 uM with ATP-linked sequential addition of FCCP measured after 14 days by Seahorse XFe96 flux analyzer. In kind it is functional, cell-based. The settings on record: dose 0.01-1 µM, time 14.0 day.
Experiment [7] addresses T1, Peroxisome proliferator-activated receptor alpha (Homo sapiens) (UniProt Q07869).
T1 sequence (whole entry): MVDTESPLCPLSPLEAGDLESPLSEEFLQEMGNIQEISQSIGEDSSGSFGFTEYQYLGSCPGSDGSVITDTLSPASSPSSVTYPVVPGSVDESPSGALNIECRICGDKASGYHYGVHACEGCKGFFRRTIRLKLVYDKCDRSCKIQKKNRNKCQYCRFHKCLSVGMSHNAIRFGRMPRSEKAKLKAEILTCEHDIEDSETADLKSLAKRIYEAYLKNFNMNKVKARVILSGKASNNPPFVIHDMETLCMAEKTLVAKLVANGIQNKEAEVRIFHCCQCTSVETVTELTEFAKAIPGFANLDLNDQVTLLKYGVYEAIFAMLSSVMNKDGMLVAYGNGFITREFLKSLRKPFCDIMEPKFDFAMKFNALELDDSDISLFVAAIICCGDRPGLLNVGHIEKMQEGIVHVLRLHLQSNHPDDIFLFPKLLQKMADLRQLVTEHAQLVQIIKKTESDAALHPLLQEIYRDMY
The experiment in a line: Agonist activity at human GAL4 DBD-fused PPARalpha ( 164 to 466 residues) LBD transfected in HEK293T cells assessed as fold activation at 10 uM incubated for 14 to 16 hrs by Renilla/Firefly dual-luciferase reporter assay. In kind it is cell-based. Particulars: filed as agonist, time 14-16 hrs. Background: Reporter assays use an easily measured gene product as a stand-in for the process of interest.

For experiment [8], the system named is SGBS. The experiment in a line: Induction of proton leakage in human SGBS cells assessed as increase in oxygen consumption rate at 0.01 to 1 uM with sequential addition of oligomycin measured after 14 days by Seahorse XFe96 flux analyzer. The experiment is classed as functional, cell-based. The settings on record: dose 0.01-1 µM, time 14.0 day.
For experiment [9], the target named is T2, Peroxisome proliferator-activated receptor delta (Homo sapiens) (UniProt Q03181).
T2 sequence (whole entry): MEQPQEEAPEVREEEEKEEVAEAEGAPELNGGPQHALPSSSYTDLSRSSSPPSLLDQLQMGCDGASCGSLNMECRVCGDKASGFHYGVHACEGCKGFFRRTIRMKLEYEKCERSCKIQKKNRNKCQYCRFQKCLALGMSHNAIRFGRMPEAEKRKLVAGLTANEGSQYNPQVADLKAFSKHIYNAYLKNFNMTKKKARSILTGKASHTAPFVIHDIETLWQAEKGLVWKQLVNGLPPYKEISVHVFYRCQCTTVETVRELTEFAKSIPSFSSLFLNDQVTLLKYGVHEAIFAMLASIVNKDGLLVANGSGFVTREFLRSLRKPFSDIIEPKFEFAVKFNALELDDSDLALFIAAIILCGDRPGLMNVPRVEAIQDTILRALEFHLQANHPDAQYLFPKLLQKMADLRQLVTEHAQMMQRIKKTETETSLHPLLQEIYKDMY
The experiment in a line: Agonist activity at human GAL4 DBD-fused PPARdelta LBD (138 to 441 residues) transfected in HEK293T cells assessed as fold activation at 10 uM incubated for 14 to 16 hrs by Renilla/Firefly dual-luciferase reporter assay. The experiment is classed as cell-based. Particulars: time 14-16 hrs.

Experiment [10] concerns SGBS. Briefly: Induction of browning in human SGBS cells assessed as increase in UCP1 mRNA expression at 0.01 to 1 uM by RT-PCR analysis. The experiment is classed as functional, cell-based. The settings on record: dose 0.01-1 µM.
Experiment [11] deals with T3, Retinoic acid receptor alpha (Homo sapiens) (UniProt P10276).
T3 sequence (whole entry): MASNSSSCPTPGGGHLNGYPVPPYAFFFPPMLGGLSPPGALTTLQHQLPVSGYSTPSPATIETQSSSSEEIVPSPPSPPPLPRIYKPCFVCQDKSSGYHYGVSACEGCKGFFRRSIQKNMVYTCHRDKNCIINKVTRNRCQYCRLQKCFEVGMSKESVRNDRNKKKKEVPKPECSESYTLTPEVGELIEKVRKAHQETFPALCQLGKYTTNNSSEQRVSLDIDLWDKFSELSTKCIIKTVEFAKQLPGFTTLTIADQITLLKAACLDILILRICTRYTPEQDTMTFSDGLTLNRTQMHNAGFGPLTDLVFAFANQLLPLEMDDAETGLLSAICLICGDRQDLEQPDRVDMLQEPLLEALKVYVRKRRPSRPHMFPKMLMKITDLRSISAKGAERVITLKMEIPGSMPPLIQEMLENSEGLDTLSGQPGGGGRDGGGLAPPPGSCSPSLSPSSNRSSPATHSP
Briefly: Agonist activity at human GAL4 DBD-fused RARalpha LBD (177 to 462 residues) transfected in HEK293T cells assessed as fold activation at 10 uM incubated for 14 to 16 hrs by Renilla/Firefly dual-luciferase reporter assay. The experiment is classed as cell-based. Particulars: time 14-16 hrs.

For experiment [12], the target named is T4, Oxysterols receptor LXR-alpha (Homo sapiens) (UniProt Q13133).
T4 sequence (whole entry): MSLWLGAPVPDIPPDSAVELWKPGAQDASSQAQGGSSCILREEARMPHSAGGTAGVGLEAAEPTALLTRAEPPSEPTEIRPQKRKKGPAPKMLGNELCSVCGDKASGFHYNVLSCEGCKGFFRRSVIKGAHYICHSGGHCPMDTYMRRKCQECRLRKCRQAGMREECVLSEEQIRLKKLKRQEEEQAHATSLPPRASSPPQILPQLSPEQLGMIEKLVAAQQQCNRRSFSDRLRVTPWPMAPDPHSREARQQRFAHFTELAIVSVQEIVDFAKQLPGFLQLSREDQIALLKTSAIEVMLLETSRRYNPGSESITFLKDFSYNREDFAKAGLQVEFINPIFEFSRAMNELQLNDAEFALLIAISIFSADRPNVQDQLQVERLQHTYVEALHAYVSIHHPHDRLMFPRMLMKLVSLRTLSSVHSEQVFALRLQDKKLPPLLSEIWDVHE
The experiment in a line: Agonist activity at human GAL4 DBD-fused LXRalpha LBD (182 to 447 residues) transfected in HEK293T cells assessed as fold activation at 10 uM incubated for 14 to 16 hrs by Renilla/Firefly dual-luciferase reporter assay. In kind it is cell-based. The settings on record: time 14-16 hrs.

For experiment [13], the system named is SGBS. Briefly: Induction of basal respiration in human SGBS cells assessed as increase in oxygen consumption rate at 0.01 to 1 uM incubated for 14 days in presence of dibutyryl-cAMP by Seahorse XFe96 flux analyzer. Particulars: dose 0.01-1 µM, time 14.0 day. In kind it is functional, cell-based.
In experiment [14] the test system is Heart. The experiment in a line: Cardioprotective activity in Langendorff-perfused wild-type C57BL/6 mouse heart assessed as increase in heart rate at 3 nM. In kind it is functional, tissue-based.
In experiment [15] the test system is SGBS. Briefly: Induction of adipogenic differentiation in human SGBS cells assessed as intracellular lipid droplet accumulation at 0.01 to 1 uM measured after 4 days by Nile red staining based imaging analysis. The experiment is classed as functional, cell-based. Particulars: dose 0.01-1 µM, time 4.0 day.
The target of experiment [16] is T5, Vitamin D3 receptor (Homo sapiens) (UniProt P11473).
T5 sequence (whole entry): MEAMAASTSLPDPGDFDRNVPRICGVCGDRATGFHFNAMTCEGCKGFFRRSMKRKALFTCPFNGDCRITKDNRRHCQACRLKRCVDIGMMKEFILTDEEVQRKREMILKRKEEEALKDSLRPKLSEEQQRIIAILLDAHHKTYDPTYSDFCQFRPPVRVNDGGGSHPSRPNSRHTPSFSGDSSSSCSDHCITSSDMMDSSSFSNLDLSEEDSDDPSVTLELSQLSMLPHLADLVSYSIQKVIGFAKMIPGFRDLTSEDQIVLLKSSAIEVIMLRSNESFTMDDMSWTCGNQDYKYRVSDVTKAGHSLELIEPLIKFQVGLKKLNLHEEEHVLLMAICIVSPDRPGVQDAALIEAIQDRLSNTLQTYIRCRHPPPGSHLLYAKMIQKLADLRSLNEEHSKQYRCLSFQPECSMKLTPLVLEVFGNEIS
The experiment in a line: Agonist activity at human GAL4 DBD-fused VDR LBD (119 to 427 residues) transfected in HEK293T cells assessed as fold activation at 10 uM incubated for 14 to 16 hrs by Renilla/Firefly dual-luciferase reporter assay. The experiment is classed as cell-based. Particulars: time 14-16 hrs.

For experiment [17], the system named is Heart. The experiment in a line: Cardioprotective activity in Langendorff-perfused wild-type C57BL/6 mouse heart assessed as increase in heart rate at 30 nM. In kind it is functional, tissue-based.
In experiment [18] the test system is SGBS. Briefly: Induction of browning in human SGBS cells assessed as increase in UQCRC2 mRNA expression by qRT-PCR analysis. In kind it is functional, cell-based. The settings on record: dose 0.01-1 µM.

Molecules are shown by their SMILES. The source made the active and inactive calls. No cut-off for these calls is given here.

With `CC[C@H](Cc1ccc(C(=O)NCc2ccc(OC)cc2C(F)(F)F)cc1)C(=O)O`, the outcome (with SGBS [1]; with Heart [2]; in the experiment filed under Mus musculus [4]; in the experiment filed under Mus musculus [5]; with SGBS [6]; in experiment [7]) was Active. The result in the experiment with SGBS [8], with SGBS [10], in the experiment with SGBS [13] and in the experiment on SGBS [15] was Active. Also, the outcome (in the experiment with SGBS [3]; in [9]; in experiment [11]; in experiment [12]; with Heart [14]; in experiment [16]) was inactive.
As for `O=C(NC12CC3CC(CC(C3)C1)C2)N[C@H]1CC[C@H](Oc2ccc(C(=O)O)cc2)CC1`, the result in the experiment with Heart [14] was inactive. Besides, the outcome in the experiment on Heart [17] was Active.
With `CN(CCOc1ccc(CC2SC(=O)NC2=O)cc1)c1ccccn1` (configuration not stated), the result in the experiment with SGBS [1] was Active. Besides, the Activity result in the experiment on SGBS [18] was “Dose-Dependent Effect”.
Consider `CC[C@@H](Cc1ccc(C(=O)NCc2ccc(OC)cc2C(F)(F)F)cc1)C(=O)O`, for which the result in the experiment with SGBS [1], with SGBS [6], with SGBS [8] and in the experiment with SGBS [13] was Active. The outcome with SGBS [3], in the experiment on SGBS [10] and in the experiment with SGBS [15] was inactive.
